According to paper PMC8010095, “Discovery of novel antituberculosis agents among 3-phenyl-5-(1-phenyl-1H-[1,2,3]triazol-4-yl)-[1,2,4]oxadiazole derivatives targeting aminoacyl-tRNA synthetases” (Scientific Reports, 2021):

Legend:
[1] = tested on: moxifloxacin-resistant strain H37Rv (gyrA^D94K) (MOX3); format: cell-based, Mycobacterium tuberculosis
[2] = tested on: isoniazid-resistant H37Rv (katG^del) (MS015); assay: microbe, parasite or virus in culture; format: cell-based; details: > 80% reduction in growth, screened at 20, 2 and 0.2 mg/L, 7H9 complete medium; for MIC: Mycobacterium tuberculosis, H37RV, read-out: Growth inhibition cutoff, H37Rv (katG^del)
[3] = tested on: rifampin-resistant strain H37Rv (rpoB^S450L) (ATCC #35,838); format: cell-based, Mycobacterium tuberculosis
[4] = tested on: M. tuberculosis mono-resistant strains; assay: microbe, parasite or virus in culture; format: cell-based

COc1ccc(-n2nnc(-c3nc(-c4ccc(F)cc4)no3)c2N)cc1Cl [Compound 17, 3-(3-chloro-4-methoxy-phenyl)-5-[3-(4-fluoro-phenyl)-[1,2,4]oxadiazol-5-yl]-3H-[1,2,3]triazol-4-ylamine]
Growth inhibition cutoff, H37Rv (gyrA^D94K) [1]: > 20 mg/L | Growth inhibition cutoff, H37Rv (katG^del) [2]: > 20 mg/L | Growth inhibition cutoff, H37Rv (rpoB^S450L) [3]: > 20 mg/L

Cc1c(-c2nc(-c3ccccc3F)no2)nnn1-c1ccc(F)c(Cl)c1 [Compound 4]
Growth inhibition cutoff, H37Rv (gyrA^D94K) [1]: > 20 mg/L | Growth inhibition cutoff, H37Rv (katG^del) [2]: > 20 mg/L | Growth inhibition cutoff, H37Rv (rpoB^S450L) [3]: > 20 mg/L

CCOc1ccc(-c2noc(-c3nnn(-c4ccccc4Cl)c3N)n2)cc1 [Compound 40]
Growth inhibition cutoff, H37Rv (gyrA^D94K) [1]: 2 to 20 mg/L | Growth inhibition cutoff, H37Rv (katG^del) [2]: > 20 mg/L | Growth inhibition cutoff, H37Rv (rpoB^S450L) [3]: > 20 mg/L | growth inhibition cutoff [4]: 5.22 to 52.2 µM

Nc1c(-c2nc(-c3ccc(Br)cc3)no2)nnn1-c1cccc(F)c1 [Compound 33]
Growth inhibition cutoff, H37Rv (gyrA^D94K) [1]: > 20 mg/L | Growth inhibition cutoff, H37Rv (katG^del) [2]: > 20 mg/L | Growth inhibition cutoff, H37Rv (rpoB^S450L) [3]: > 20 mg/L

COc1ccccc1-n1nnc(-c2nc(-c3ccc(F)cc3)no2)c1N [Compound 26]
Growth inhibition cutoff, H37Rv (gyrA^D94K) [1]: > 20 mg/L | Growth inhibition cutoff, H37Rv (katG^del) [2]: > 20 mg/L | Growth inhibition cutoff, H37Rv (rpoB^S450L) [3]: > 20 mg/L

Nc1c(-c2nc(-c3ccc(F)cc3)no2)nnn1-c1ccc(F)cc1 [Compound 12]
Growth inhibition cutoff, H37Rv (gyrA^D94K) [1]: > 20 mg/L | Growth inhibition cutoff, H37Rv (katG^del) [2]: > 20 mg/L | Growth inhibition cutoff, H37Rv (rpoB^S450L) [3]: > 20 mg/L

CCOc1ccccc1-n1nnc(-c2nc(-c3ccc(F)cc3)no2)c1N [Compound 30]
Growth inhibition cutoff, H37Rv (gyrA^D94K) [1]: > 20 mg/L | Growth inhibition cutoff, H37Rv (katG^del) [2]: > 20 mg/L | Growth inhibition cutoff, H37Rv (rpoB^S450L) [3]: > 20 mg/L

Nc1c(-c2nc(-c3ccc(F)cc3)no2)nnn1-c1ccc(Br)cc1 [Compound 11]
Growth inhibition cutoff, H37Rv (gyrA^D94K) [1]: > 20 mg/L | Growth inhibition cutoff, H37Rv (katG^del) [2]: > 20 mg/L | Growth inhibition cutoff, H37Rv (rpoB^S450L) [3]: > 20 mg/L

Nc1c(-c2nc(-c3ccc(F)cc3)no2)nnn1-c1ccccc1F [Compound 23]
Growth inhibition cutoff, H37Rv (gyrA^D94K) [1]: > 20 mg/L | Growth inhibition cutoff, H37Rv (katG^del) [2]: > 20 mg/L | Growth inhibition cutoff, H37Rv (rpoB^S450L) [3]: > 20 mg/L

Cc1c(-c2nc(-c3ccccc3F)no2)nnn1-c1cc(F)ccc1F [Compound 6]
Growth inhibition cutoff, H37Rv (gyrA^D94K) [1]: > 20 mg/L | Growth inhibition cutoff, H37Rv (katG^del) [2]: > 20 mg/L | Growth inhibition cutoff, H37Rv (rpoB^S450L) [3]: > 20 mg/L

Nc1c(-c2nc(-c3ccccc3)no2)nnn1-c1ccc(C(F)(F)F)c(Cl)c1 [Compound 2]
Growth inhibition cutoff, H37Rv (gyrA^D94K) [1]: > 20 mg/L | MIC [2]: > 20 µg/mL | Growth inhibition cutoff, H37Rv (rpoB^S450L) [3]: > 20 mg/L

CCOc1ccccc1-n1nnc(-c2nc(-c3ccc(Br)cc3)no2)c1N [Compound 36]
Growth inhibition cutoff, H37Rv (gyrA^D94K) [1]: > 20 mg/L | Growth inhibition cutoff, H37Rv (katG^del) [2]: > 20 mg/L | Growth inhibition cutoff, H37Rv (rpoB^S450L) [3]: > 20 mg/L

Cc1c(-c2nc(-c3ccccc3Cl)no2)nnn1-c1cccc(F)c1 [Compound 7]
Growth inhibition cutoff, H37Rv (gyrA^D94K) [1]: > 20 mg/L | Growth inhibition cutoff, H37Rv (katG^del) [2]: > 20 mg/L | Growth inhibition cutoff, H37Rv (rpoB^S450L) [3]: > 20 mg/L

Nc1c(-c2nc(-c3ccc(F)cc3)no2)nnn1-c1ccccc1 [Compound 9]
Growth inhibition cutoff, H37Rv (gyrA^D94K) [1]: > 20 mg/L | Growth inhibition cutoff, H37Rv (katG^del) [2]: > 20 mg/L | Growth inhibition cutoff, H37Rv (rpoB^S450L) [3]: > 20 mg/L

COc1ccc(C)cc1-n1nnc(-c2nc(-c3ccc(F)cc3)no2)c1N [Compound 28]
Growth inhibition cutoff, H37Rv (gyrA^D94K) [1]: > 20 mg/L | Growth inhibition cutoff, H37Rv (katG^del) [2]: > 20 mg/L | Growth inhibition cutoff, H37Rv (rpoB^S450L) [3]: > 20 mg/L

Nc1c(-c2nc(-c3ccccc3)no2)nnn1-c1ccccc1F [Compound 1]
Growth inhibition cutoff, H37Rv (gyrA^D94K) [1]: > 20 mg/L | Growth inhibition cutoff, H37Rv (katG^del) [2]: > 20 mg/L | Growth inhibition cutoff, H37Rv (rpoB^S450L) [3]: > 20 mg/L

Nc1c(-c2nc(-c3ccc(Cl)cc3)no2)nnn1-c1ccc(Br)cc1F [Compound 31]
Growth inhibition cutoff, H37Rv (gyrA^D94K) [1]: > 20 mg/L | Growth inhibition cutoff, H37Rv (katG^del) [2]: > 20 mg/L | Growth inhibition cutoff, H37Rv (rpoB^S450L) [3]: > 20 mg/L

Nc1c(-c2nc(-c3ccc(F)cc3)no2)nnn1-c1ccc(F)cc1F [Compound 22]
Growth inhibition cutoff, H37Rv (gyrA^D94K) [1]: > 20 mg/L | Growth inhibition cutoff, H37Rv (katG^del) [2]: > 20 mg/L | Growth inhibition cutoff, H37Rv (rpoB^S450L) [3]: > 20 mg/L

Nc1c(-c2nc(-c3ccc(F)cc3)no2)nnn1-c1ccc(Cl)cc1 [Compound 10]
Growth inhibition cutoff, H37Rv (gyrA^D94K) [1]: > 20 mg/L | Growth inhibition cutoff, H37Rv (katG^del) [2]: > 20 mg/L | Growth inhibition cutoff, H37Rv (rpoB^S450L) [3]: > 20 mg/L

Nc1c(-c2nc(-c3ccc(F)cc3)no2)nnn1-c1cccc(Cl)c1 [Compound 16]
Growth inhibition cutoff, H37Rv (gyrA^D94K) [1]: > 20 mg/L | Growth inhibition cutoff, H37Rv (katG^del) [2]: > 20 mg/L | Growth inhibition cutoff, H37Rv (rpoB^S450L) [3]: > 20 mg/L

COc1ccc(-c2noc(-c3nnn(-c4ccc(Cl)cc4)c3C)n2)cc1OC [Compound 38]
Growth inhibition cutoff, H37Rv (gyrA^D94K) [1]: > 20 mg/L | Growth inhibition cutoff, H37Rv (katG^del) [2]: > 20 mg/L | Growth inhibition cutoff, H37Rv (rpoB^S450L) [3]: > 20 mg/L

CCOc1ccc(-c2noc(-c3nnn(-c4ccccc4F)c3N)n2)cc1 [Compound 39]
Growth inhibition cutoff, H37Rv (gyrA^D94K) [1]: > 20 mg/L | Growth inhibition cutoff, H37Rv (katG^del) [2]: > 20 mg/L | Growth inhibition cutoff, H37Rv (rpoB^S450L) [3]: > 20 mg/L

Nc1c(-c2nc(-c3ccc(F)cc3)no2)nnn1-c1cccc(F)c1 [Compound 15]
Growth inhibition cutoff, H37Rv (gyrA^D94K) [1]: > 20 mg/L | Growth inhibition cutoff, H37Rv (katG^del) [2]: > 20 mg/L | Growth inhibition cutoff, H37Rv (rpoB^S450L) [3]: > 20 mg/L

CCOc1ccc(-c2noc(-c3nnn(-c4ccc(F)c(Cl)c4)c3N)n2)cc1 [Compound 41]
Growth inhibition cutoff, H37Rv (gyrA^D94K) [1]: > 20 mg/L | Growth inhibition cutoff, H37Rv (katG^del) [2]: > 20 mg/L | Growth inhibition cutoff, H37Rv (rpoB^S450L) [3]: > 20 mg/L

Cc1cccc(-n2nnc(-c3nc(-c4ccc(F)cc4)no3)c2N)c1 [Compound 18]
Growth inhibition cutoff, H37Rv (gyrA^D94K) [1]: > 20 mg/L | Growth inhibition cutoff, H37Rv (katG^del) [2]: > 20 mg/L | Growth inhibition cutoff, H37Rv (rpoB^S450L) [3]: > 20 mg/L

Nc1c(-c2nc(-c3ccc(Br)cc3)no2)nnn1-c1ccc(F)cc1 [Compound 32]
Growth inhibition cutoff, H37Rv (gyrA^D94K) [1]: > 20 mg/L | Growth inhibition cutoff, H37Rv (katG^del) [2]: > 20 mg/L | Growth inhibition cutoff, H37Rv (rpoB^S450L) [3]: > 20 mg/L

CCc1ccc(-n2nnc(-c3nc(-c4ccc(F)cc4)no3)c2N)cc1 [Compound 14]
Growth inhibition cutoff, H37Rv (gyrA^D94K) [1]: > 20 mg/L | Growth inhibition cutoff, H37Rv (katG^del) [2]: > 20 mg/L | Growth inhibition cutoff, H37Rv (rpoB^S450L) [3]: > 20 mg/L

COc1ccc(OC)c(-n2nnc(-c3nc(-c4ccc(F)cc4)no3)c2N)c1 [Compound 29]
Growth inhibition cutoff, H37Rv (gyrA^D94K) [1]: > 20 mg/L | Growth inhibition cutoff, H37Rv (katG^del) [2]: > 20 mg/L | Growth inhibition cutoff, H37Rv (rpoB^S450L) [3]: > 20 mg/L

COc1ccc(-n2nnc(-c3nc(-c4ccc(F)cc4)no3)c2N)cc1 [Compound 13]
Growth inhibition cutoff, H37Rv (gyrA^D94K) [1]: > 20 mg/L | MIC [2]: > 20 µg/mL | Growth inhibition cutoff, H37Rv (rpoB^S450L) [3]: > 20 mg/L

Cc1ccccc1-c1noc(-c2nnn(-c3ccc(Br)cc3)c2C)n1 [Compound 8]
Growth inhibition cutoff, H37Rv (gyrA^D94K) [1]: > 20 mg/L | Growth inhibition cutoff, H37Rv (katG^del) [2]: > 20 mg/L | Growth inhibition cutoff, H37Rv (rpoB^S450L) [3]: > 20 mg/L

COc1ccc(-n2nnc(-c3nc(-c4ccc(F)cc4)no3)c2N)cc1OC [Compound 21]
Growth inhibition cutoff, H37Rv (gyrA^D94K) [1]: > 20 mg/L | Growth inhibition cutoff, H37Rv (katG^del) [2]: > 20 mg/L | Growth inhibition cutoff, H37Rv (rpoB^S450L) [3]: > 20 mg/L

Nc1c(-c2nc(-c3ccc(F)cc3)no2)nnn1-c1cccc(C(F)(F)F)c1 [Compound 19]
Growth inhibition cutoff, H37Rv (gyrA^D94K) [1]: > 20 mg/L | Growth inhibition cutoff, H37Rv (katG^del) [2]: > 20 mg/L | Growth inhibition cutoff, H37Rv (rpoB^S450L) [3]: > 20 mg/L

Cc1c(-c2nc(-c3ccccc3F)no2)nnn1-c1ccc(Br)cc1 [Compound 5]
Growth inhibition cutoff, H37Rv (gyrA^D94K) [1]: 2 to 20 mg/L | Growth inhibition cutoff, H37Rv (katG^del) [2]: > 20 mg/L | Growth inhibition cutoff, H37Rv (rpoB^S450L) [3]: 2 to 20 mg/L

COc1ccc(-c2noc(-c3nnn(-c4cc(Cl)ccc4OC)c3N)n2)cc1 [Compound 37]
Growth inhibition cutoff, H37Rv (gyrA^D94K) [1]: > 20 mg/L | Growth inhibition cutoff, H37Rv (katG^del) [2]: > 20 mg/L | Growth inhibition cutoff, H37Rv (rpoB^S450L) [3]: > 20 mg/L

COc1ccccc1-n1nnc(-c2nc(-c3ccc(Br)cc3)no2)c1N [Compound 35]
Growth inhibition cutoff, H37Rv (gyrA^D94K) [1]: > 20 mg/L | Growth inhibition cutoff, H37Rv (katG^del) [2]: > 20 mg/L | Growth inhibition cutoff, H37Rv (rpoB^S450L) [3]: > 20 mg/L
